Where only a bound is given, the exact number is not on record here.

As usually defined, the IC50 is the point on the concentration scale where inhibition reaches its midpoint.

The target of one assay is T1, recombinant human MMP-13 (Homo sapiens, UniProt P45452).
T1 construct: made in house; host or cells: baculovirus (pBlueBac4 / Bac-N-Blue; virus made in Sf9), expressed in High-Five insect cells; culture supernatant used
Description: Assay of MMP-13 inhibiting activity (fluorogenic peptide substrate). Format: biochemical. Particulars: Table 1; 37° C., 2 hours. An excerpt:
Based on the sequence described in the literature by Freije, J. M. et al (Journal of Biological Chemistry, 269: 16766-16773, 1994) and using a PCR method known per se, a human MMP-13 cDNA was obtained.
A pBlueBac4 (Invitrogen) and a Baculovirus vector Bac-N-Blue (Invitrogen) to each of which the human MMP-13 cDNA obtained above was integrated were co-transfected to an Sf9 cell to obtain a MMP-13-expressing recombinant virus.
The recombinant virus thus obtained was infected to a High-Five cell (Invitrogen), and the culture supernatant after three days was employed as an enzyme solution. Experiment 2 Assay of MMP-13 inhibiting activity
75 μl of a sample containing the recombinant human MMP-13, 200 mM sodium chloride, 20 mM calcium chloride, 0.1% Brij 35, 1 mM 2-mercaptoethanol, 200 mM tris-HCl buffer solution (pH7.5) and a test substance at various concentrations was treated with 25 μl of 40 μM MOCAc-Pro-Leu-Gly-Leu-A2pr(DNP)-Ala-Arg-NH2 (PEPTIDE KENKYUSHO) to initiate a reaction and kept at 37° C. for 2 hours, and then 100 μl of 500 mM sodium acetate-HCl buffer solution (pH3.0) was added to terminate the reaction.
The level of liberated MOCAc-Pro-Leu-Gly was determined using a fluorophotometer (MTP-32/F2: CORONA DENKI) at the excitation wavelength of 330 nm and the fluorescent wavelength of 405 nm. The fluorescent level of the reaction in the absence of a test substance was regarded as 100%, and the concentration of each test substance required for achieving 50% inhibition was indicated as IC50.
Take “3-Mercapto-1-(4-phenoxybenzylpyrrolidine-2,5-dione [Example 1]”: the IC50 stood at 5 nM.

Turning to `CCSC1CC(=O)N(Cc2ccc(Oc3ccccc3)cc2)C1=O` (stereo not shown) [Example 2, 3-Ethylthio-1-(4-phenoxybenzyl)pyrrolidine-2,5-dione], the half-inhibitory concentration (IC50) is above 10000 nM.

In the case of `CCOC(=O)CCSC1CC(=O)N(Cc2ccc(Oc3ccccc3)cc2)C1=O` (stereo not shown) [Example 3, 3-[2-(Ethoxycarbonyl)ethylthio]-1-(4-phenoxybenzyl)pyrrolidine-2,5-dione], the half-maximal inhibitory concentration (IC50) was above 10000 nM.

As to `O=C1CC(SCc2ccccc2)C(=O)N1Cc1ccc(Oc2ccccc2)cc1` (stereo not shown) [Example 4, 3-Benzylthio-1-(4-phenoxybenzyl)pyrrolidine-2,5-dione], the IC50 was above 10000 nM.

Regarding `CC(=O)SC1CC(=O)N(Cc2ccc(Oc3ccccc3)cc2)C1=O` (stereo not shown) [Example 5, 3-Acetylthio-1-(4-phenoxybenzyl)pyrrolidine-2,5-dione], the concentration for half-maximal inhibition (IC50) stood at 30 nM.

Regarding `O=C(SC1CC(=O)N(Cc2ccc(Oc3ccccc3)cc2)C1=O)c1ccccc1` (stereo not shown) [Example 6, 3-Benzoylthio-1-(4-phenoxybenzyl)pyrrolidine-2,5-dione], the IC50 came out at 2 nM.

On to `CC(=O)SCC1CC(=O)N(Cc2ccc(Oc3ccccc3)cc2)C1=O` (stereo not shown) [Example 10, 3-Acethylmethyl-1-(4-phenoxybenzyl)pyrrolidine-2,5-dione], for which the half-maximal inhibitory concentration (IC50) was found to be 400 nM.

Regarding `O=C1CC(SSCC2CCCO2)C(=O)N1Cc1ccc(Oc2ccccc2)cc1` (stereo not shown) [Example 11, 3-[(Tetrahydro-2-furanyl)methyldithio]-1-(4-phenoxybenzyl)pyrrolidine-2,5-dione], the IC50 was 100 nM.

Still in this assay, the particulars now being: Table 2; 37° C., 2 hours.
As for `CC(=O)SC1C(=O)N(Cc2ccc(Oc3ccccc3)cc2)C(=O)C1C` (stereo not shown) [Example 7, 3-Acetylthio-4-methyl-1-(4-phenoxybenzyl)pyrrolidine-2,5-dione], the concentration for half-maximal inhibition (IC50) turned out to be 50 nM.

For the molecule `CC1C(=O)N(Cc2ccc(Oc3ccccc3)cc2)C(=O)C1S` (stereo not shown) [Example 8, 3-Mercapto-4-methyl-1-(4-phenoxybenzyl)pyrrolidine-2,5-dione], the IC50 came to 20 nM.

In the case of `COC(=O)CCSC1C(=O)N(Cc2ccc(Oc3ccccc3)cc2)C(=O)C1O` (stereo not shown) [Example 9, 3-Hydroxy-4-[2-(methoxycarbonyl)ethylthio]-1-(4-phenoxybenzyl)pyrrolidine-2,5-dione], the IC50 worked out at 1000 nM.

Staying with this assay, now noted: Table 3; 37° C., 2 hours.
In the case of `CC(=O)SC1CC(=O)N(Cc2ccc(Oc3ccccc3)cc2)C1` (stereo not shown) [Example 15, 4-Acetylthio-1-(4-phenoxybenzyl)pyrrolidin-2-one], the IC50 was found to be 10 nM.

Regarding `O=C(SC1CC(=O)N(Cc2ccc(Oc3ccccc3)cc2)C1)c1ccccc1` (stereo not shown) [Example 16, 4-Benzoylthio-1-(4-phenoxybenzyl)pyrrolidin-2-one], the 50% inhibitory concentration (IC50) is 2 nM.

`O=C1CC(S)CN1Cc1ccc(Oc2ccccc2)cc1` (stereo not shown) [Example 17, 4-Mercapto-1-(4-phenoxybenzyl)pyrrolidin-2-one]: the concentration for half-maximal inhibition (IC50) is 5 nM.

With `CC(C)(C)C(=O)OCSC1CC(=O)N(Cc2ccc(Oc3ccccc3)cc2)C1` (stereo not shown) [Example 18, 4-Pivaloyloxymethylthio-1-(4-phenoxybenzyl)pyrrolidin-2-one], the IC50 was determined as 30 nM.

For `CC(=O)S[C@H]1CC(=O)N(Cc2ccc(Oc3ccccc3)cc2)C1` [Example 21, (S)-4-Acetylthio-1-(4-phenoxybenzyl)pyrrolidin-2-one], the half-maximal inhibitory concentration (IC50) came to 4000 nM.

Consider `O=C1C[C@H](S)CN1Cc1ccc(Oc2ccccc2)cc1` [Example 22, (S)-4-Mercapto-1-(4-phenoxybenzyl)pyrrolidin-2-one], for which the IC50 is 300 nM.

Staying with this assay, now noted: Table 5; 37° C., 2 hours.
Take `CC(=O)S[C@@H]1CC(=O)N(Cc2ccc(Oc3ccccc3)cc2)[C@H]1COCc1ccccc1` (relative stereo) [Example 38, Trans-4-acetylthio-5-benzyloxymethyl-1-(4-phenoxybenzyl)pyrrolidin-2-one]: the IC50 is 5 nM.

As to `CC(=O)S[C@@H]1CC(=O)N(Cc2ccc(Oc3ccccc3)cc2)[C@H]1CC(C)C` (relative stereo) [Example 179, trans-4-Acetylthio-5-isobutyl-1-(4-phenoxybenzyl)pyrrolidin-2-one], the IC50 worked out at 9 nM.

As to `CC(C)C[C@H]1[C@H](S)CC(=O)N1Cc1ccc(Oc2ccccc2)cc1` (relative stereo) [Example 180, trans-5-Isobutyl-4-mercapto-1-(4-phenoxybenzyl)pyrrolidin-2-one], the IC50 was found to be 20 nM.

Take `CC(=O)S[C@@H]1CC(=O)N(Cc2ccc(Oc3ccccc3)cc2)[C@H]1Cc1ccccc1` (relative stereo) [Example 181, trans-4-Acetylthio-5-benzyl-1-(4-phenoxybenzyl)pyrrolidin-2-one]: the IC50 worked out at 8 nM.

Take `O=C1C[C@@H](S)[C@H](Cc2ccccc2)N1Cc1ccc(Oc2ccccc2)cc1` (relative stereo) [Example 182, trans-5-Benzyl-4-mercapto-1-(4-phenoxybenzyl)pyrrolidin-2-one]: the IC50 worked out at 20 nM.

Consider `CCCNC(=O)OC[C@H]1[C@H](SC(C)=O)CC(=O)N1Cc1ccc(Oc2ccccc2)cc1` (relative stereo) [Example 183, trans-4-Acetylthio-5-propylaminocarbonyloxymethyl-1-(4-phenoxybenzyl)pyrrolidin-2-one], for which the IC50 was 20 nM.

For `CCCNC(=O)OC[C@H]1[C@H](S)CC(=O)N1Cc1ccc(Oc2ccccc2)cc1` (relative stereo) [Example 184, trans-4-Mercapto-5-propylaminocarbonyloxymethyl-1-(4-phenoxybenzyl)pyrrolidin-2-one], the concentration for half-maximal inhibition (IC50) came out at 2.3 nM.

Regarding `CC(=O)S[C@@H]1CC(=O)N(Cc2ccc(Oc3ccccc3)cc2)[C@H]1COC1CCCCO1` (relative stereo) [Example 185, trans-4-Acetylthio-5-(tetrahydro-2H-pyran-2-yl)oxymethyl-1-(4-phenoxybenzyl)pyrrolidin-2-one], the concentration for half-maximal inhibition (IC50) is 6 nM.

With `CCOC(=O)CNC(=O)[C@H]1[C@H](SC(C)=O)CC(=O)N1Cc1ccc(Oc2ccccc2)cc1` (relative stereo) [Example 186, trans-4-Acetylthio-5-ethoxycarbonylmethylaminocarbonyl-1-(4-phenoxybenzyl)pyrrolidin-2-one], the IC50 is 50 nM.

For the molecule `CC(=O)S[C@@H]1CC(=O)N(Cc2ccc(Oc3ccccc3)cc2)[C@H]1C(=O)NCCO` (relative stereo) [Example 189, trans-4-Acetylthio-5-(2-hydroxyethyl)aminocarbonyl-1-(4-phenoxybenzyl)pyrrolidin-2-one], the IC50 was determined as 89 nM.

Take `O=C(NCCO)[C@H]1[C@H](S)CC(=O)N1Cc1ccc(Oc2ccccc2)cc1` (relative stereo) [Example 190, trans-5-(2-Hydroxyethyl)aminocarbonyl-4-mercapto-1-(4-phenoxybenzyl)pyrrolidin-2-one]: the IC50 is 25 nM.

Turning to `CC(=O)S[C@@H]1CC(=O)N(Cc2ccc(Oc3ccccc3)cc2)[C@H]1C(=O)NCc1ccncc1` (relative stereo) [Example 191, trans-4-Acetylthio-5-(4-pyridylmethyl)aminocarbonyl-1-(4-phenoxybenzyl)pyrrolidin-2-one], the half-maximal inhibitory concentration (IC50) was 120 nM.

As to `O=C(NCc1ccncc1)[C@H]1[C@H](S)CC(=O)N1Cc1ccc(Oc2ccccc2)cc1` (relative stereo) [Example 192, trans-4-Mercapto-5-(4-pyridylmethyl)aminocarbonyl-1-(4-phenoxybenzyl)pyrrolidin-2-one], the IC50 is 19 nM.

Consider `CC(=O)SC1CC(=O)N(Cc2ccc(Oc3ccccc3)cc2)C1CO` (stereo not drawn) [Example 20, Trans-4-acetylthio-5-hydroxymethyl-1-(4-phenoxybenzyl)pyrrolidin-2-one], for which the IC50 is 10 nM.

Still in this assay, the particulars now being: Table 7; 37° C., 2 hours.
Turning to `O=C1CC(SSC2CC(=O)N(Cc3ccc(Oc4ccccc4)cc3)C2=O)C(=O)N1Cc1ccc(Oc2ccccc2)cc1` (stereo not shown) [Example 12], the IC50 was found to be 9 nM.

For `O=C1CC(CSSCC2CC(=O)N(Cc3ccc(Oc4ccccc4)cc3)C2=O)C(=O)N1Cc1ccc(Oc2ccccc2)cc1` (stereo not shown) [Example 13, 3,3′-[Dithiobis(methylene)]bis[1-(4-phenoxybenzyl)pyrrolidine-2,5-dione]], the IC50 was above 10000 nM.

Turning to `O=C1CC(SC2CC(=O)N(Cc3ccc(Oc4ccccc4)cc3)C2=O)C(=O)N1Cc1ccc(Oc2ccccc2)cc1` (stereo not shown) [Example 14], the half-maximal inhibitory concentration (IC50) came to 100 nM.

Regarding `O=C1CC(SSC2CC(=O)N(Cc3ccc(Oc4ccccc4)cc3)C2)CN1Cc1ccc(Oc2ccccc2)cc1` (stereo not shown) [Example 19, 4,4′-Dithiobis[1-(4-phenoxybenzyl)pyrrolidin-2-one]], the IC50 is 200 nM.

Take `O=C1C[C@H](SS[C@H]2CC(=O)N(Cc3ccc(Oc4ccccc4)cc3)C2)CN1Cc1ccc(Oc2ccccc2)cc1` [Example 23, (4S,4′S)-4,4′-Dithiobis[1-(4-phenoxybenzyl)pyrrolidin-2-one]]: the IC50 is above 10000 nM.

The same assay, now with this note: Table 9; 37° C., 2 hours.
For “4-Acetylthio-1-[4-(2′-fluorophenoxy)benzyl]pyrrolidin-2-one [Example 112]”, the IC50 was 20 nM.

The record behind these values is patent US6953789B2, “Thiol compounds, their production and use” (Takeda Chemical Industries, Ltd., priority 1998, dated 2005).
